Results reported in patent US11802259B2, “Process of reducing malodors on fabrics” (The Procter & Gamble Company, priority 2019, dated 2023).

Assay: Malodor Reduction Test Method (wash of body soil malodor test fabrics, SPME GC-MS of oxidation markers)
Settings: antioxidant at 0.035 wt % in detergent
Protocol: The following method is used to test the malodor reduction benefits of a composition.
Fatty acids and malodor markers are added into 100 ml glass gar with Teflon-lined cap according to Table A and mixed well using a vortex.
Provided the specified amount of each material according to Table B into a 200 mL glass jar with Teflon lined cap. Artificial body soil (ABS) is commercially available by Accurate Product Development; 2028 Bohlke Blvd, Fairfield, Ohio 45014.
Sixteen malodor test fabrics per wash load are prepared by applying 300 μl of Body soil malodor composition described in Table B to de-sized 2×5 inch white polycotton 50/50 (PCW50/50) swatches. 48 grams of liquid detergent to be tested (see, e.g., Example 1, Table 1, below) is added to Duet 9200 washing appliance set to Normal cycle; 77° F. wash cycle followed by a 60° F. rinse cycle. […]
The malodor reduction using ABS/Squalene malodor sensors are quantitatively determined by Gas Chromatography Mass Spectroscopy using an Agilent gas chromatograph 7890B equipped with a mass selective detector (5977B), a Chemstation quantitation package and a Gerstel multi-purpose sampler equipped with a solid phase micro-extraction (SPME) probe. […] Based on the partition coefficients (K at 80 C) of each component, the total nMol/L liter of 6-Methyl-5-hepten-2-one (K=3353), Trans-2-heptenal (K=3434), and 3-methyl-2-Butenal (K=1119) are calculated. […]

Compound: Cc1c(C)c2c(c(C)c1O)CCC(C)(C(=O)O)O2 (stereo not shown) [Antioxidant 7, 3,4-dihydro-6-hydroxy-2,5,7,8-tetramethyl-2H-1-Benzopyran-2-carboxylic acid]
- malodor reduction benefits (reduction in total oxidation markers): did not provide benefits
